Patent US20170176470A1, “DETECTION OF CARBOXYALKYLPYRROLE OR PENTYLPYRROLE ETHANOLAMINE PHOSPHOLIPIDS” (CASE WESTERN RESERVE UNIVERSITY, priority 2015, published 2017)

Key:
[1] = target: T1, recombinant mouse TLR2-Fc fusion protein (Mus musculus, UniProt Q9QUN7); experiment: Competitive binding of CEP-PE vs CEP-HSA to recombinant mouse TLR2-Fc protein (ELISA); conditions: vesicles 0 to 125 μM; coated CEP-HSA; mTLR2-Fc 1 μg/ml
T1 construct: purchased R&D systems (Minneapolis, Minn.)
Experimental: Small unilamellar vesicles of CEP-DPPE (125 μM) in phosphate buffered saline (PBS) were prepared by extruding (20 times) the hydrated phospholipids through a 0.1 μm polycarbonate filter using an Avanti Mini-Extruder (Avanti Polar Lipids, Inc., Alabaster, Ala.). The resulting solution was diluted to various concentrations by addition of PBS. To a 96-well ELISA plate, 100 μl of 5 μM CEP in CEP-HSA protein in PBS solution was added into each well and the plate was incubated at 37° C. for 1 h. PBS (100 μl) was used as control. Then the wells were washed with PBS and the non-binding sites on wells were blocked with 350 μL of 4% bovine serum albumin (BSA) in PBS buffer for 1 h at 37° C. blocking was completed, a mixture of recombine-ant mouse TLR2-Fc protein at a fixed concentration (1 μg/ml, in 1% BSA-PBS) with an equal volume of CEP-PE vesicles at concentrations from 0 to 125 μM was added to each well, and the plate was allowed to incubate for 1 h at 37° C. DPPE vesicle solutions at 0, 50, 75 and 120 μM concentration, prepared by sonication, were used as parallel samples. After washing the plate with PBS containing 0.1% Tween-20 (PBST) buffer, 100 μL of 1:2,000 diluted goat anti-human Fc antibody in PBST buffer was added to each well. […] After an additional 30 min incubation, the absorbance for each well was read at 405 nm with a microplate reader (Bio-Rad, Hercules, Calif.).

HUVECs = experiment: HUVEC tube formation assay; type: cell-based, human
Experimental: For comparing the ability of various CEP-derivatives to promote tube formation (FIG. 2A) HUVECs were seeded on Matrigel-coated 48 well plates (BD Bioscience). The DMEM-F12 medium (Media lab, Cleveland Clinic, Cleveland, Ohio) was supplemented with various CEP-derivatives as indicated and incubated with cultured HUVECs at 37° C. for 8 h. Tube formation by HUVECs was observed using a phase contrast inverted microscope. Two independent assays were performed by two operators, one used PBS as control and the other used DPPE vesicles as control. The data were quantified either by measuring the length of tubes or by the number of branches. For testing the effects of oxPAPC, a TLR2 inhibitor, (FIG. 2C) or TLR2 knockdown (FIG. 2D) on the ability of CEP-PE to promote tube formation, growth factor-reduced (GFR) basement membrane extract (Cultrex BME, Trevigen, Gaithersburg, Md.; 175 μl/well) was added to the wells of an ice-cold 48-well plate and then incubated at 37° C. for 1 h to allow the gel to solidify. Overnight-starved, trypsin detached and extensively washed HUVECs (2.5×10^4 cells/well; Promocell, GmbH, Heidelberg, Germany) in a basal Growth Medium 2 (GM2; Promocell, GmbH) were seeded onto the BME coated wells. […] They were further thoroughly washed three times with GM2 basal medium, counted and seeded onto BME coated wells. […]

[2] = test system: PLD from Streptomyces chromofuscus; experiment: PLD-catalyzed hydrolysis of pyrrole-modified PEs, monitored by LC-MS; type: biochemical
Experimental: The isolated lipids were hydrolyzed with PLD (Streptomyces chromofuscus) by a modification of the method described previously for hydrolysis of isolevuglandin modified PEs. Lipids were re-suspended in 50 μL of methanol. Then 450 μL of HBSS buffer (Thermo Scientific, Waltham, Mass.) supplemented with 5 mM CaCl2 and 0.1 mM EDTA was added. The mixture was incubated at 37° C. for 30 min, and then was sonicated for 10 min. The cloudy lipid mixture was passed through a 0.1 μm polycarbonate filter (20 times) for extrusion using an Avanti Mini- Extruder Set (Avanti Polar Lipids, Inc., Alabaster, Ala.) to generate a homogeneous unilammelar lipid vesicle solution. Then 280 units of PLD (Streptomyces chromofuscus) were added to each sample. The mixture was incubated under argon with gentle shaking at 37° C. overnight. The next day the samples were evaporated to dryness under a stream of nitrogen for 2 h. […]
To verify CEP-PEs are substrates of PLD, CEP-DPPE and d4-CEP-PE standards were treated with PLD from Streptomyces chromofuscus. Then the generation of CEP-ETN and d4-CEPETN was monitored by LC-MS/MS, respectively. […]
Total phospholipids isolated from biological samples by a modified Bligh & Dyer method, were prepared for phospholipolysis by conversion into small unilamellar vesicles (SUVs) by extrusion. […] The resulting product mixture was then analyzed by injection into the LC-MS/MS. […]

T1 sequence (Q9QUN7 with tags, fused parts or gaps limits assumed): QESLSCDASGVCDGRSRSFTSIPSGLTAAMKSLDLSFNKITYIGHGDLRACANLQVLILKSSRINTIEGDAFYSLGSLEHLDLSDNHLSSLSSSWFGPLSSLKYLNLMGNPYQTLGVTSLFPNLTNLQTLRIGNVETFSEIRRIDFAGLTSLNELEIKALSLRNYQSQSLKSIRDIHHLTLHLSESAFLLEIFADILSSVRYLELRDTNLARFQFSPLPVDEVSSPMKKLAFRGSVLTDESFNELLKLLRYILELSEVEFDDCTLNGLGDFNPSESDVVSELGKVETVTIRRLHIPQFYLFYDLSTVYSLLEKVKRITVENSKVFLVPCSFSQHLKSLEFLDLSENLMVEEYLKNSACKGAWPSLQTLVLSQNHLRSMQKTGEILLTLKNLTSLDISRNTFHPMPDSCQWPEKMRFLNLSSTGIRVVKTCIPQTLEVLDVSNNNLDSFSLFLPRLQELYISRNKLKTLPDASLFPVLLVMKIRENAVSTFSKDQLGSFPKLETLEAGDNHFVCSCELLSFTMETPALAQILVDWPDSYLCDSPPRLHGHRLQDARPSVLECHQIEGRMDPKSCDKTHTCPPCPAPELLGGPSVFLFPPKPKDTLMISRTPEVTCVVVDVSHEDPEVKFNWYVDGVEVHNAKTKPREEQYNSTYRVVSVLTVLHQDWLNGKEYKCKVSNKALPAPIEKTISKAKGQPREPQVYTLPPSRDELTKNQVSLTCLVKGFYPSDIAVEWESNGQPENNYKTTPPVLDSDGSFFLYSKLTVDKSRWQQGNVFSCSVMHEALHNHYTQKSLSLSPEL

## CCCCCCCCCCCCCCCC(=O)OC[C@H](COP(=O)(O)OCCN)OC(=O)CCCCCCCCCCCCCCC [DPPE, 1,2-Dipalmitoyl-sn-glycero-3-phosphoethanolamine, reference compound]
[1]
  competition with CEP-HSA in binding with mTLR2-Fc protein: does not inhibit

## CEP derivative of 1,2-dipalmitoyl-sn-glycero-3-phosphoethanolamine [CEP-DPPE]
HUVECs; HUVECs with transient TLR2 knockdown, 1-500 nM CEP-DPPE, 12 h
  ability to induce tube formation by HUVECs after knockdown of TLR2 by TLR2 siRNA: abolished
HUVECs; cultured HUVECs on Matrigel, 8 h, 0.5 μM CEP-DPPE, PBS or DPPE as negative control
  tube formation by HUVECs: induces tube formation
[1]
  competition with CEP-HSA in binding with mTLR2-Fc protein: compete with CEP-HSA
[2]; control experiment, incubation for 1 h (data not shown)
  release of CEP-ETN by PLD: quantitative release
[2]; standards treated with PLD, LC-MS/MS or LC-MS
  hydrolysis by PLD (Streptomyces chromofuscus) to the modified ethanolamine: readily hydrolyzed
